The compounds below were run on karpas 299 cells (assay: Measurement of inhibition of cell proliferation (Karpas), ATPlite). Conditions: Homo sapiens, KARPAS-299, 72 h.
Format: cell-based
Experimental: Measurement of Inhibition of Cell Proliferation (Karpas):
The antiproliferative activities of the compounds were measured using the ATPlite technique (Perkin Elmer).
The non-adhering cells (karpas 299) are seeded in 96-well plates (300 000 cells/ml) on Day 1 at a concentration compatible with logarithmic growth for 72 hours required for evaluation of the compounds. All the cells are treated on Day 1, then placed in an incubator at 37° C. under 5% CO2 atmosphere. Cell viability is evaluated on Day 4 by assay of released ATP, characteristic of viable cells. The IC50 values are determined by non-linear regression on the basis of a sigmoid model of dose/response relationship, Hill's slope coefficient being left variable, performed using GraphPad software sequence with the supplied algorithm.

IC50 [µM]	SMILES
1 to 10	N#Cc1c(-c2cncs2)nc2[nH]nc(-c3ccco3)c2c1-c1ccc(N2CCNCC2)cc1 [Compound 285]
> 10	Cc1n[nH]c2nc(-c3ccc(NS(C)(=O)=O)cc3F)c(C#N)c(-c3ccc(N4CCNCC4)cc3)c12 [Compound 208]
0.1 to 1	Cc1n[nH]c2nc(-c3ccc(O)c(Cl)c3)c(C#N)c(-c3ccc(N4CCNCC4)cc3)c12 [Compound 180]
> 10	Cc1n[nH]c2nc(-c3ccc(O)cc3F)c(C#N)c(C3C[C@@H]3C(=O)N3CC[C@@H](N)C3)c12 (stereo partly drawn) [Compound 147]
0.1 to 1	N#Cc1c(-c2ccc(O)cc2F)nc2[nH]ncc2c1-c1ccc(Br)o1 [Compound 117]
> 10	Cc1n[nH]c2nc(-c3ccc(O)cc3F)c(C#N)c(C(=O)NCCN3CCOCC3)c12 [Compound 136]
0.1 to 1	COC(=O)c1c(-c2ccc(O)cc2F)nc2[nH]nc(N)c2c1-c1ccc(N2CCNCC2)cc1 [Compound 295]
> 10	N#Cc1c(-c2cc(Cl)c(O)cc2F)nc2[nH]nc(N)c2c1-c1ccc(N2CCNCC2)cc1 [Compound 199]
> 10	Cc1n[nH]c2nc(-c3ccc(O)cc3)c(C#N)c(-c3ccc(-c4ccc(N)cc4)o3)c12 [Compound 273]
1 to 10	Cc1n[nH]c2nc(-c3c(F)ccc(Cl)c3F)c(C#N)c(-c3ccc(N4CCNCC4)cc3)c12 [Compound 228]
> 10	Cc1n[nH]c2nc(-c3ccc(O)cc3F)c(C#N)c(C3C[C@@H]3C(=O)NCC3CCNCC3)c12 (stereo partly drawn) [Compound 138]
0.1 to 1	Cc1n[nH]c2nc(-c3ccc(O)cc3F)c(C#N)c(-c3ccc(N4CCC(N(C)C)C4)o3)c12 (stereo not drawn) [Compound 159]
1 to 10	CN(C)CCCN(C)c1ccc(-c2c(C#N)c(-c3ccc(O)cc3F)nc3[nH]nc(N)c23)cc1 [Compound 191]
1 to 10	N#Cc1c(-c2ccc(O)cc2F)nc2[nH]ncc2c1-c1ccc(CN2CCOCC2)o1 [Compound 84]
> 10	N#Cc1c(-c2c(F)ccc(F)c2F)nc2[nH]nc(N)c2c1-c1ccc(N2CCNCC2)cc1 [Compound 212]
0.1 to 1	Cc1n[nH]c2nc(-c3ccc(O)cc3F)c(C#N)c(-c3ccc(N4CC[C@@H](O)C4)o3)c12 [Compound 156]
1 to 10	Cc1n[nH]c2nc(-c3ccc(O)c(Br)c3)c(C#N)c(-c3ccc(N4CCNCC4)cc3)c12 [Compound 175]
1 to 10	N#Cc1c(-c2ccc(O)c(Cl)c2)nc2[nH]nc(N)c2c1-c1ccc(N2CCNCC2)cc1 [Compound 192]
0.1 to 1	N#Cc1c(-c2ccc(O)cc2F)nc2[nH]nc(N)c2c1-c1ccco1 [Compound 93]
0.1 to 1	Cc1cc(-c2nc3[nH]nc(C)c3c(-c3ccc(N4CCNCC4)cc3)c2C#N)ccc1O [Compound 176]
1 to 10	N#Cc1c(-c2ccc(O)cc2F)nc2[nH]nc(N)c2c1-c1ccc(N2CCNCC2)cc1 [Compound 121]
1 to 10	N#Cc1c(-c2c(F)ccc(F)c2F)nc2[nH]nc(-c3ccco3)c2c1-c1ccc(N2CCOCC2)o1 [Compound 255]
> 10	CC(=O)Oc1ccc(-c2nc3[nH]nc(-c4cccs4)c3c(-c3ccc(N4CCNCC4)cc3)c2C#N)c(F)c1 [Compound 298]
0.1 to 1	Cc1cc(-c2nc3[nH]nc(N)c3c(-c3ccc(N4CCNCC4)cc3)c2C#N)c(F)cc1O [Compound 294]
> 10	Cc1n[nH]c2nc(-c3ccc(O)cc3F)c(C#N)c(C3C[C@@H]3C(=O)N3CCNCC3)c12 (stereo partly drawn) [Compound 146]
< 0.1	COC(=O)c1c(-c2ccc(OC(=O)C(C)(C)C)cc2F)nc2[nH]nc(C)c2c1-c1ccc(N2CCNCC2)cc1 [Compound 300]
1 to 10	Cc1n[nH]c2nc(-c3ccc(O)cc3F)c(C#N)c(-c3ccc(N4CCNCC4)o3)c12 [Compound 172]

The compounds below were run against ALK kinase (Homo sapiens, UniProt Q9UM73) (assay: Test to measure ALK kinase inhibition (GST-PLCγ1 substrate, anti-phosphotyrosine ELISA, luminescence)). Conditions: ALK kinase 180 ng/ml, 250 μM ATP, 30 minutes at 30° C.
Format: biochemical
Experimental: Test to Measure ALK Kinase Inhibition
A ViewPlate (Packard) is incubated with the GST-PLCγ1 substrate (purified recombinant form) at 0.1 mg/ml in phosphate buffer (PBS pH 7.4)(100 μl/well) for one hour under shaking. The plate is then saturated with a blocking solution containing 5% bovine serum albumin (BSA) (SIGMA) in PBS buffer pH 7.4.
After adding the inhibitor at the desired final concentration (usual range of 30 μM to 10 nM), the reaction is conducted by adding the ALK kinase at 180 ng/ml in 13 mM Tris reaction buffer pH 7.5 (SIGMA); 6.5 mM MgCl2 (MERCK); 0.65 mM DiThioThreitol (DTT) (ACROS); 39 mM sodium β-glycerophosphate (TCI); 0.65 mM sodium orthovanadate (SIGMA) and 250 μM ATP (SIGMA). Incubation is carried out for 30 minutes at 30° C. under shaking.
After three washings under shaking in 0.1% PBS/Tween-20 buffer (SIGMA), an anti-phosphotyrosine antibody coupled with HRP (UBI) diluted to 1/1000th in PBS/BSA buffer 5 mg/ml, is incubated for one hour under shaking. After three further washings in 0.1% PBS/Tween-20, the wells are incubated two minutes with 100 μl of SuperSignal ELISA mixture (PIERCE).
The signal is read in luminescent mode using a luminometer (MOLECULAR DEVICES SpectraMax M5e).

ALK kinase, sequence (Q9UM73 19-1620): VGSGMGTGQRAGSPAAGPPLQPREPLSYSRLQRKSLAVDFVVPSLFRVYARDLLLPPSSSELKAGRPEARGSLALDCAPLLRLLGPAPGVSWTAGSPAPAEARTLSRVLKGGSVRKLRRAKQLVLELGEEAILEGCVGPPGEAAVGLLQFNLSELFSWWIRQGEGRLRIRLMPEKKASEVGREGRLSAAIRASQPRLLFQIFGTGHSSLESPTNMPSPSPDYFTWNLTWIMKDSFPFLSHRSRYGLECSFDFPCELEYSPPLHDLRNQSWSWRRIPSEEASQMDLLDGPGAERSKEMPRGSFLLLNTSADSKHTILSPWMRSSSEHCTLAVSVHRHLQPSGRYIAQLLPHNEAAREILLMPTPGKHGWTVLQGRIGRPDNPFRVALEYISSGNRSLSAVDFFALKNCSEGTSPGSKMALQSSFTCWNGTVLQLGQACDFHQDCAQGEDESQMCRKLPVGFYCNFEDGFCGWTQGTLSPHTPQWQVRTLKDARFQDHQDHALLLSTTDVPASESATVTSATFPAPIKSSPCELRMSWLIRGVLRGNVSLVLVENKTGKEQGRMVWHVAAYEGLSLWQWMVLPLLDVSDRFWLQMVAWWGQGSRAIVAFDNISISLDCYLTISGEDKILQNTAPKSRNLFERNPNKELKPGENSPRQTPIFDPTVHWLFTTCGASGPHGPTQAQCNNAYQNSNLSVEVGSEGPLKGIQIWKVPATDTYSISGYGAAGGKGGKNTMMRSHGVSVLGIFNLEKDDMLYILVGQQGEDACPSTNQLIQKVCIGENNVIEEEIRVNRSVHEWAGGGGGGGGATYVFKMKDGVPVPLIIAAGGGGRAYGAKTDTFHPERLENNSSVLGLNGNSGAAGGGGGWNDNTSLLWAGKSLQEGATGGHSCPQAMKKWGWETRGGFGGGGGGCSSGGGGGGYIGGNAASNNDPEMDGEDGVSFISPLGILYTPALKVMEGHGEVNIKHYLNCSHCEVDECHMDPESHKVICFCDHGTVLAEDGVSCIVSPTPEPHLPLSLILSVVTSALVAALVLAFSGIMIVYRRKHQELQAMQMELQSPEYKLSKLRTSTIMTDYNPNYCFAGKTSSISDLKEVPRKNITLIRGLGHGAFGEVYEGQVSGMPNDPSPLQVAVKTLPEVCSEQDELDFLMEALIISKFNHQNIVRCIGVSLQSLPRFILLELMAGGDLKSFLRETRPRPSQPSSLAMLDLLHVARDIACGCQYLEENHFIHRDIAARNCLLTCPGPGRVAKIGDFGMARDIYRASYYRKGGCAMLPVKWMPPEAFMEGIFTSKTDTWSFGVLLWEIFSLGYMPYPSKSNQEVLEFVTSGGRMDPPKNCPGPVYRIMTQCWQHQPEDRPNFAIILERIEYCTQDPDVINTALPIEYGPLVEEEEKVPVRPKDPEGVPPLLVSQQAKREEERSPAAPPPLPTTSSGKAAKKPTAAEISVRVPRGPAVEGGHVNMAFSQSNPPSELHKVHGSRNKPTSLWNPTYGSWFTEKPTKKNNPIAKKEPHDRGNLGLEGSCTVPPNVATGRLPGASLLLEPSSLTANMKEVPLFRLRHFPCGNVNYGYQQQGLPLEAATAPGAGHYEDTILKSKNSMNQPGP

IC50 [µM]	SMILES
< 0.1	N#Cc1c(-c2cncs2)nc2[nH]nc(-c3ccco3)c2c1-c1ccc(N2CCNCC2)cc1 [Compound 285]
1 to 10	Cc1n[nH]c2nc(-c3ccc(NS(C)(=O)=O)cc3F)c(C#N)c(-c3ccc(N4CCNCC4)cc3)c12 [Compound 208]
< 0.1	Cc1n[nH]c2nc(-c3ccc(O)c(Cl)c3)c(C#N)c(-c3ccc(N4CCNCC4)cc3)c12 [Compound 180]
1 to 10	Cc1n[nH]c2nc(-c3ccc(O)cc3F)c(C#N)c(C3C[C@@H]3C(=O)N3CC[C@@H](N)C3)c12 (stereo partly drawn) [Compound 147]
< 0.1	N#Cc1c(-c2ccc(O)cc2F)nc2[nH]ncc2c1-c1ccc(Br)o1 [Compound 117]
1 to 10	Cc1n[nH]c2nc(-c3ccc(O)cc3F)c(C#N)c(C(=O)NCCN3CCOCC3)c12 [Compound 136]
< 0.1	COC(=O)c1c(-c2ccc(O)cc2F)nc2[nH]nc(N)c2c1-c1ccc(N2CCNCC2)cc1 [Compound 295]
< 0.1	N#Cc1c(-c2cc(Cl)c(O)cc2F)nc2[nH]nc(N)c2c1-c1ccc(N2CCNCC2)cc1 [Compound 199]
0.1 to 1	Cc1n[nH]c2nc(-c3ccc(O)cc3)c(C#N)c(-c3ccc(-c4ccc(N)cc4)o3)c12 [Compound 273]
0.1 to 1	Cc1n[nH]c2nc(-c3c(F)ccc(Cl)c3F)c(C#N)c(-c3ccc(N4CCNCC4)cc3)c12 [Compound 228]
0.1 to 1	Cc1n[nH]c2nc(-c3ccc(O)cc3F)c(C#N)c(C3C[C@@H]3C(=O)NCC3CCNCC3)c12 (stereo partly drawn) [Compound 138]
< 0.1	Cc1n[nH]c2nc(-c3ccc(O)cc3F)c(C#N)c(-c3ccc(N4CCC(N(C)C)C4)o3)c12 (stereo not drawn) [Compound 159]
< 0.1	CN(C)CCCN(C)c1ccc(-c2c(C#N)c(-c3ccc(O)cc3F)nc3[nH]nc(N)c23)cc1 [Compound 191]
0.1 to 1	N#Cc1c(-c2ccc(O)cc2F)nc2[nH]ncc2c1-c1ccc(CN2CCOCC2)o1 [Compound 84]
1 to 10	N#Cc1c(-c2c(F)ccc(F)c2F)nc2[nH]nc(N)c2c1-c1ccc(N2CCNCC2)cc1 [Compound 212]
< 0.1	Cc1n[nH]c2nc(-c3ccc(O)cc3F)c(C#N)c(-c3ccc(N4CC[C@@H](O)C4)o3)c12 [Compound 156]
0.1 to 1	Cc1n[nH]c2nc(-c3ccc(O)c(Br)c3)c(C#N)c(-c3ccc(N4CCNCC4)cc3)c12 [Compound 175]
< 0.1	N#Cc1c(-c2ccc(O)c(Cl)c2)nc2[nH]nc(N)c2c1-c1ccc(N2CCNCC2)cc1 [Compound 192]
> 10	N#Cc1c(-c2ccc(O)cc2F)nc2[nH]nc(N)c2c1-c1ccco1 [Compound 93]
0.1 to 1	Cc1cc(-c2nc3[nH]nc(C)c3c(-c3ccc(N4CCNCC4)cc3)c2C#N)ccc1O [Compound 176]
< 0.1	N#Cc1c(-c2ccc(O)cc2F)nc2[nH]nc(N)c2c1-c1ccc(N2CCNCC2)cc1 [Compound 121]
1 to 10	N#Cc1c(-c2c(F)ccc(F)c2F)nc2[nH]nc(-c3ccco3)c2c1-c1ccc(N2CCOCC2)o1 [Compound 255]
0.1 to 1	CC(=O)Oc1ccc(-c2nc3[nH]nc(-c4cccs4)c3c(-c3ccc(N4CCNCC4)cc3)c2C#N)c(F)c1 [Compound 298]
< 0.1	Cc1cc(-c2nc3[nH]nc(N)c3c(-c3ccc(N4CCNCC4)cc3)c2C#N)c(F)cc1O [Compound 294]
0.1 to 1	Cc1n[nH]c2nc(-c3ccc(O)cc3F)c(C#N)c(C3C[C@@H]3C(=O)N3CCNCC3)c12 (stereo partly drawn) [Compound 146]
< 0.1	COC(=O)c1c(-c2ccc(OC(=O)C(C)(C)C)cc2F)nc2[nH]nc(C)c2c1-c1ccc(N2CCNCC2)cc1 [Compound 300]
0.1 to 1	Cc1n[nH]c2nc(-c3ccc(O)cc3F)c(C#N)c(-c3ccc(N4CCNCC4)o3)c12 [Compound 172]
